Like-named read-outs stand apart in the source and are kept apart here.
Key:
[1] = test system: MIA PaCa-2 (KRAS G12C) cells; assay: KRAS_G12C cellular pERK HTRF assay; assay type: cell-based, human; conditions: phospho-ERK1/2 HTRF, 4 hours incubation, read-out: G12C_pERK (KRAS_G12C pERK assay IC50)
Procedure: MIA PaCa-2 (KRAS G12C; ATCC® CRL-1420), A427 (KRAS G12D; ATCC® HTB53), HPAF-II (KRAS G12D; ATCC® CRL-1997) and NCI-H838 (KRAS WT; ATCC® CRL-5844) cells are purchased from ATCC and maintained in RPMI 1640 media supplemented with 10% FBS (Gibco/Life Technologies). The cells are plated at 5000 cells per well (8 uL) into Greiner 384-well low volume, flat-bottom, tissue culture treated white plates and incubated overnight at 37° C., 5% CO2. The next morning, test compound stock solutions are diluted in media at 3× the final concentration, and 4 uL are added to the cells. The plate is mixed by gentle rotation for 30 seconds (250 rpm) at room temperature. The cells are incubated with the KRAS G12C and G12D compounds for 4 hours or 2 hours respectively at 37° C., 5% CO2.
4 uL of 4× lysis buffer with blocking reagent (1:25) (Cisbio) are added to each well and plates are rotated gently (300 rpm) for 30 minutes at room temperature. 4 uL per well of Cisbio anti Phospho-ERK 1/2 d2 is mixed with anti Phospho-ERK 1/2 Cryptate (1:1) are added to each well, mixed by rotation and incubated overnight in the dark at room temperature. Plates are read on the Pherastar plate reader at 665 nm and 620 nm wavelengths. IC50 determination is performed by fitting the curve of inhibitor percent inhibition versus the log of the inhibitor concentration using the GraphPad Prism 7 software.

KRAS G12C = KRAS G12C (Homo sapiens, UniProt P01116, G12C); assay: KRAS G12C GDP-GTP exchange assay (bodipy-GDP for GppNHp, with SOS1); assay type: biochemical; conditions: 2.5 nM bodipy-loaded KRAS G12C, 2 hours pre-incubation with inhibitor, 2 hours after GppNHp-SOS1; read-out: G12C_exchange (KRAS_G12C exchange assay IC50)
Procedure: The inhibitor potency of the exemplified compounds was determined in a fluorescence based guanine nucleotide exchange assay, which measures the exchange of bodipy-GDP (fluorescently labeled GDP) for GppNHp (Non-hydrolyzable GTP analog) to generate the active state of KRAS in the presence of SOS1 (guanine nucleotide exchange factor). Inhibitors were serially diluted in DMSO and a volume of 0.1 μL was transferred to the wells of a black low volume 384-well plate. 5 μL/well volume of bodipy-loaded KRAS G12C diluted to 5 nM in assay buffer (25 mM Hepes pH 7.5, 50 mM NaCl, 10 mM MgCl2 and 0.01% Brij-35) was added to the plate and pre-incubated with inhibitor for 2 hours at ambient temperature. Appropriate controls (enzyme with no inhibitor or with a G12C inhibitor (AMG-510)) were included on the plate. The exchange was initiated by the addition of a 5 μL/well volume containing 1 mM GppNHp and 300 nM SOS1 in assay buffer. The 10 μL/well reaction concentration of the bodipy-loaded KRAS G12C, GppNHp, and SOS1 were 2.5 nM, 500 uM, and 150 nM, respectively. The reaction plates were incubated at ambient temperature for 2 hours, a time estimated for complete GDP-GTP exchange in the absence of inhibitor. For the KRAS G12D and G12V mutants, similar guanine nucleotide exchange assays were used with 2.5 nM as final concentration for the bodipy loaded KRAS proteins and with 4 hours and 3 hours incubation after adding GppNHp-SOS1 mixture for G12D and G12V respectively. A cyclic peptide described to selectively bind G12D mutant (Sakamoto et al., BBRC 484.3 (2017), 605-611) or internal compounds with confirmed binding were used as positive controls in the assay plates. Fluorescence intensities were measured on a PheraStar plate reader instrument (BMG Labtech) with excitation at 485 nm and emission at 520 nm.
Either GraphPad prism or XLfit was used to analyze the data. The IC50 values were derived by fitting the data to a four parameter logistic equation producing a sigmoidal dose-response curve with a variable Hill coefficient. Prism equation: Y=Bottom+(Top−Bottom)/(1+10^((Log IC50−X)*Hill slope)); XLfit equation: Y=(A+((B−A)/(1+((X/C)^D)))) where X is the logarithm of inhibitor concentration and Y is the response.

KRAS G12C, sequence (P01116 1-188 isoform P01116-2 G12C): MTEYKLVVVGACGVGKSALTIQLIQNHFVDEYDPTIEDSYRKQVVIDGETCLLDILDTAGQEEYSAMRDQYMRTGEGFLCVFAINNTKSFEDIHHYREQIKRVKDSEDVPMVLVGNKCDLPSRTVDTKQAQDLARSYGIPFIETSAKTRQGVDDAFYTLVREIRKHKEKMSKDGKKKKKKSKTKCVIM

| SMILES | IC50 ([1]; Homo sapiens, MIA PaCa-2) [µM] | IC50 (KRAS G12C) [µM] | IC50 [1] [µM] |
| --- | --- | --- | --- |
| C=C(F)C(=O)N1CC[C@H](n2ncc3c(O[C@@H](C)[C@@H]4CCCN4C)nc4c(F)c(-c5c(C)c(C)cc6[nH]ncc56)c(C)cc4c32)C[C@H]1CC#N (single isomer, unassigned) [Example 68b] | ≤ 0.1 | ≤ 0.1 |  |
| C=CC(=O)N1CC[C@H](n2ncc3c(N4CC(N(C)C)C4)nc4c(F)c(-c5cccc(C)c5Cl)c(Cl)cc4c32)C[C@H]1CC#N [Example 23, 2-((2S,4S)-1-acryloyl-4-(8-chloro-7-(2-chloro-3-methylphenyl)-4-(3-(dimethylamino)azetidin-1-yl)-6-fluoro-1H-pyrazolo[4,3-c]quinolin-1-yl)piperidin-2-yl)acetonitrile] | ≤ 0.1 | ≤ 0.1 |  |
| C[C@H](Oc1nc2c(F)c(-c3cccc4cccc(Cl)c34)c(Cl)cc2c2c1cnn2[C@H]1CCN(C(=O)/C=C/CN(C)C)[C@H](CC#N)C1)[C@@H]1CCCN1C [Example 89, 2-((2S,4S)-4-(8-chloro-7-(8-chloronaphthalen-1-yl)-6-fluoro-4-((S)-1-((S)-1-methylpyrrolidin-2-yl)ethoxy)-1H-pyrazolo[4,3-c]quinolin-1-yl)-1-((E)-4-(dimethylamino)but-2-enoyl)piperidin-2-yl)acetonitrile] | ≤ 0.1 | ≤ 0.1 |  |
| Cc1c(Cl)cc2[nH]ncc2c1-c1c(Cl)cc2c(nc(N3CC(C)(N(C)C)C3)c3cnn([C@H]4CCN(C(=O)/C=C/C(F)F)[C@H](CC#N)C4)c32)c1F (single isomer, unassigned) [Example 14a] | ≤ 0.1 | ≤ 0.1 |  |
| C=CC(=O)N1CC[C@H](n2ncc3c(N4CC(N(C)C)C4)nc4c(F)c(-c5cccc(Cl)c5Cl)c(Cl)cc4c32)C[C@H]1CC#N (single isomer, unassigned) [Example 25a] | ≤ 0.1 | ≤ 0.1 |  |
| C=CC(=O)N1CCC(n2ncc3c(N4CC(N(C)C)C4)nc4c(F)c(-c5cc(O)cc6ccccc56)c(Cl)cc4c32)CC1 [Example 2, 1-(4-(8-chloro-4-(3-(dimethylamino)azetidin-1-yl)-6-fluoro-7-(3-hydroxynaphthalen-1-yl)-1H-pyrazolo[4,3-c]quinolin-1-yl)piperidin-1-yl)prop-2-en-1-one] | ≤ 0.1 | ≤ 0.1 |  |
| Cc1cc2[nH]ncc2c(-c2c(Cl)cc3c(nc(OC[C@@H]4CCCN4C)c4cnn([C@H]5CCN(C(=O)/C=C/CN(C)C)[C@H](CC#N)C5)c43)c2F)c1C (single isomer, unassigned) [Example 80a] | ≤ 0.1 | ≤ 0.1 |  |
| C=CC(=O)N1CC[C@H](n2ncc3c(N4CC(N(C)C)C4)nc4c(F)c(-c5ccc(F)c6cccnc56)c(Cl)cc4c32)C[C@H]1CC#N (single isomer, unassigned) [Example 21b] |  | ≤ 0.1 | ≤ 0.1 |
| CC#CC(=O)N1CC[C@H](n2ncc3c(N4CC(C)(N(C)C)C4)nc4c(F)c(-c5c(C)c(C)cc6[nH]ncc56)c(Cl)cc4c32)C[C@H]1CC#N (single isomer, unassigned) [Example 82a] | ≤ 0.1 | ≤ 0.1 |  |
| Cc1cc2[nH]ncc2c(-c2c(Cl)cc3c(nc(N4CC(N(C)C)C4)c4cnn([C@H]5CCN(C(=O)/C=C/CF)[C@H](CC#N)C5)c43)c2F)c1C (single isomer, unassigned) [Example 72a] | ≤ 0.1 | ≤ 0.1 |  |
| COC/C=C/C(=O)N1CC[C@H](n2ncc3c(O[C@@H](C)[C@@H]4CCCN4C)nc4c(F)c(-c5c(C)c(C)cc6[nH]ncc56)c(C)cc4c32)C[C@H]1CC#N (single isomer, unassigned) [Example 70b] | ≤ 0.1 | ≤ 0.1 |  |
| C=C(F)C(=O)N1CC[C@H](n2ncc3c(N4CC(N(C)C)C4)nc4c(F)c(-c5c(C)c(C)cc6[nH]ncc56)c(Cl)cc4c32)C[C@H]1CC#N (single isomer, unassigned) [Example 73a] | ≤ 0.1 | ≤ 0.1 |  |
| Cc1cc2c(nc(N3CC(C)(N(C)C)C3)c3cnn([C@H]4CCN(C(=O)/C=C/CF)[C@H](CC#N)C4)c32)c(F)c1-c1cccc2cccc(C#N)c12 (single isomer, unassigned) [Example 58a] | ≤ 0.1 | ≤ 0.1 |  |
| CC#CC(=O)N1CC[C@H](n2ncc3c(N4CC(N(C)C)C4)nc4c(F)c(-c5cccc(Cl)c5Cl)c(Cl)cc4c32)C[C@H]1CC#N (single isomer, unassigned) [Example 26a] | ≤ 0.1 | ≤ 0.1 |  |

Other lines, results leading:

| IC50 ([1]; Homo sapiens, MIA PaCa-2) [µM] | IC50 (KRAS G12C) [µM] | IC50 [1] [µM] | SMILES |
| --- | --- | --- | --- |
| ≤ 0.1 | ≤ 0.1 |  | COC/C=C/C(=O)N1CC[C@H](n2ncc3c(OC[C@@H]4CCCN4C)nc4c(F)c(-c5c(C)c(Cl)cc6[nH]ncc56)c(Cl)cc4c32)C[C@H]1CC#N (single isomer, unassigned) [Example 19a] |
| ≤ 0.1 | ≤ 0.1 |  | CC#CC(=O)N1CC[C@H](n2ncc3c(OC[C@@H]4CCCN4C)nc4c(F)c(-c5c(C)c(C)cc6[nH]ncc56)c(Cl)cc4c32)C[C@H]1CC#N (single isomer, unassigned) [Example 78a] |
| ≤ 0.1 | ≤ 0.1 |  | C=CC(=O)N1CC[C@H](n2ncc3c(N4CC(N(C)C)C4)nc4c(F)c(-c5c(C)c(Cl)cc6[nH]ncc56)c(Cl)cc4c32)C[C@H]1CC#N (single isomer, unassigned) [Example 3a] |
| ≤ 0.1 | ≤ 0.1 |  | COC/C=C/C(=O)N1CC[C@H](n2ncc3c(OC[C@@H]4CCCN4C)nc4c(F)c(-c5c(C)c(C)cc6[nH]ncc56)c(Cl)cc4c32)C[C@H]1CC#N (single isomer, unassigned) [Example 79a] |
| ≤ 0.1 | ≤ 0.1 |  | Cc1cc2c(nc(N3CC(C)(N(C)C)C3)c3cnn([C@H]4CCN(C(=O)/C=C/CN(C)C)[C@H](CC#N)C4)c32)c(F)c1-c1cccc2cccc(C#N)c12 (single isomer, unassigned) [Example 62a] |
| ≤ 0.1 | ≤ 0.1 |  | COC/C=C/C(=O)N1CC[C@H](n2ncc3c(N4CC(C)(N(C)C)C4)nc4c(F)c(-c5c(C)c(C)cc6[nH]ncc56)c(C)cc4c32)C[C@H]1CC#N (single isomer, unassigned) [Example 65a] |
| ≤ 0.1 | ≤ 0.1 |  | C=CC(=O)N1CC[C@H](n2ncc3c(OC[C@@H]4CCCN4C)nc4c(F)c(-c5cccc(C)c5C(F)(F)F)c(Cl)cc4c32)C[C@H]1CC#N [Example 28, 2-((2S,4S)-1-acryloyl-4-(8-chloro-6-fluoro-7-(3-methyl-2-(trifluoromethyl)phenyl)-4-(((S)-1-methylpyrrolidin-2-yl)methoxy)-1H-pyrazolo[4,3-c]quinolin-1-yl)piperidin-2-yl)acetonitrile] |
|  | ≤ 0.1 | ≤ 0.1 | C=CC(=O)N1CC[C@H](n2ncc3c(N4CC(N(C)C)C4)nc4c(F)c(-c5cccc(Cl)c5Cl)c(Cl)cc4c32)C[C@H]1CC#N (single isomer, unassigned) [Example 25b] |
| ≤ 0.1 | ≤ 0.1 |  | C=C(F)C(=O)N1CC[C@H](n2ncc3c(OC[C@@H]4CCCN4C)nc4c(F)c(-c5cccc6cccc(C#N)c56)c(C)cc4c32)C[C@H]1CC#N (single isomer, unassigned) [Example 52a] |
